Laboratory results as given in patent US20220313698A1, “MODULATORS OF CYSTIC FIBROSIS TRANSMEMBRANE CONDUCTANCE REGULATOR” (Vertex Pharmaceuticals Incorporated, priority 2019, published 2022).

Target: CFTR-mediated chloride transport (Homo sapiens, UniProt P13569)
Experiment: Corrector Assay A - membrane potential dye assay (enteroid cells)
Settings: for Corrector Assay A % activity: % of chloride transport of triple combination control (1 μM (14S)-dispiro macrocycle + 3 μM tezacaftor + 300 nM ivacaftor); for EC50: read-out: Corrector Assay A EC50, human intestinal enteroid cells, 18-24 h incubation, acute 10 μM forskolin + 300 nM ivacaftor

SMILES	Corrector Assay A % activity	EC50 [nM]
CC(C)(C)c1ccc2c(n1)N1C[C@@H](CCC(c3ccc(CCC(=O)O)cn3)Nc3cccc(n3)S(=O)(=O)NC2=O)CC1(C)C (stereo partly drawn) [Compound 98, 3-{6-[(14S)-8-tert-Butyl-12,12-dimethyl-2,2,4-trioxo-2λ^6-thia-3,9,11,18,23-pentaazatetracyclo[17.3.1.111,14.05,10]tetracosa-1(23),5(10),6,8,19,21-hexaen-17-yl]pyridin-3-yl}propanoic acid]	+ (+ is <30%)	1000 to 3000
CN(C)Cc1cccc([C@H]2CC[C@@H]3CN(c4nc(C(C)(C)C)ccc4C(=O)NS(=O)(=O)c4cccc(n4)N2)C(C)(C)C3)n1 [Compound 99]	++ (++ is 30-60%)	< 1000
CC(=O)NCc1cccc([C@H]2CC[C@@H]3CN(c4nc(C(C)(C)C)ccc4C(=O)NS(=O)(=O)c4cccc(n4)N2)C(C)(C)C3)n1 [Compound 100, N-({6-[(14S,17R)-8-tert-Butyl-12,12-dimethyl-2,2,4-trioxo-2λ^6-thia-3,9,11,18,23-pentaazatetracyclo[17.3.1.111,14.05,10]tetracosa-1(22),5,7,9,19(23),20-hexaen-17-yl]pyridin-2-yl}methyl)acetamide]	+++ (+++ is >60%)	< 1000
COC(=O)NCc1cccc([C@H]2CC[C@@H]3CN(c4nc(C(C)(C)C)ccc4C(=O)NS(=O)(=O)c4cccc(n4)N2)C(C)(C)C3)n1 [Compound 101, Methyl N-({6-[(14S,17R)-8-tert-butyl-12,12-dimethyl-2,2,4-trioxo-2λ^6-thia-3,9,11,18,23-pentaazatetracyclo[17.3.1.111,14.05,10]tetracosa-1(22),5,7,9,19(23),20-hexaen-17-yl]pyridin-2-yl}methyl)carbamate]	++ (++ is 30-60%)	< 1000
CN(C)Cc1ccc(C2CC[C@@H]3CN(c4nc(C(C)(C)C)ccc4C(=O)NS(=O)(=O)c4cccc(n4)N2)C(C)(C)C3)nc1 (stereo partly drawn) [Compound 102]	+++ (+++ is >60%)	< 1000
CN(C)Cc1ccc(C2CC[C@@H]3CN(c4nc(C(C)(C)C)ccc4C(=O)NS(=O)(=O)c4cccc(n4)N2)C(C)(C)C3)nc1 (stereo partly drawn) [Compound 103]	++ (++ is 30-60%)	< 1000
CC(C)(C)c1ccc2c(n1)N1C[C@@H](CC[C@H](c3cccc(CCN)n3)Nc3cccc(n3)S(=O)(=O)NC2=O)CC1(C)C [Compound 104]	++ (++ is 30-60%)	< 1000
CC(C)(C)CCc1ccc2c(n1)N1C[C@@H](CC[C@H](c3ccccn3)Nc3cccc(n3)S(=O)(=O)NC2=O)CC1(C)C [Compound 105, (14S,17R)-8-(3,3-dimethylbutyl)-12,12-dimethyl-17-(pyridin-2-yl)-2λ^6-thia-3,9,11,18,23-pentaazatetracyclo[17.3.1.111,14.05,10]tetracosa-1(22),5,7,9,19(23),20-hexaene-2,2,4-trione]	+++ (+++ is >60%)	< 1000
CC(C)(C)/C=C/c1ccc2c(n1)N1C[C@@H](CC[C@H](c3ccccn3)Nc3cccc(n3)S(=O)(=O)NC2=O)CC1(C)C [Compound 106, (14S,17R)-8-[(1E)-3,3-dimethylbut-1-en-1-yl]-12,12-dimethyl-17-(pyridin-2-yl)-2λ^6-thia-3,9,11,18,23-pentaazatetracyclo[17.3.1.111,14.05,10]tetracosa-1(22),5,7,9,19(23),20-hexaene-2,2,4-trione]	+++ (+++ is >60%)	< 1000
COCCc1ccc(C2CC[C@@H]3CN(c4nc(C(C)(C)C)ccc4C(=O)NS(=O)(=O)c4cccc(n4)N2)C(C)(C)C3)nc1 (stereo partly drawn) [Compound 111]	++ (++ is 30-60%)	< 1000
COCCc1ccc(C2CC[C@@H]3CN(c4nc(C(C)(C)C)ccc4C(=O)NS(=O)(=O)c4cccc(n4)N2)C(C)(C)C3)nc1 (stereo partly drawn) [Compound 112]	++ (++ is 30-60%)	< 1000
CC(C)(C)c1ccc2c(n1)N1C[C@@H](CCC(c3ccc(CCN)cn3)Nc3cccc(n3)S(=O)(=O)NC2=O)CC1(C)C (stereo partly drawn) [Compound 113]	++ (++ is 30-60%)	< 1000
CC(C)(C)c1ccc2c(n1)N1C[C@@H](CCC(c3ccc(CCN)cn3)Nc3cccc(n3)S(=O)(=O)NC2=O)CC1(C)C (stereo partly drawn) [Compound 114]	++ (++ is 30-60%)	< 1000
CC(C)(C)OC(=O)N1CCC(c2ccnc(C3CC[C@@H]4CN(c5nc(C(C)(C)C)ccc5C(=O)NS(=O)(=O)c5cccc(n5)N3)C(C)(C)C4)c2)CC1 (stereo partly drawn) [Compound 117, tert-butyl 4-{2-[(14S)-8-tert-butyl-12,12-dimethyl-2,2,4-trioxo-2λ^6-thia-3,9,11,18,23-pentaazatetracyclo[17.3.1.111,14.05,10]tetracosa-1(23),5(10),6,8,19,21-hexaen-17-yl]pyridin-4-yl}piperidine-1-carboxylate]	+++ (+++ is >60%)	< 1000
CC(C)(C)OC(=O)N1CCC(c2ccnc(C3CC[C@@H]4CN(c5nc(C(C)(C)C)ccc5C(=O)NS(=O)(=O)c5cccc(n5)N3)C(C)(C)C4)c2)CC1 (stereo partly drawn) [Compound 118, tert-butyl 4-{2-[(14S)-8-tert-butyl-12,12-dimethyl-2,2,4-trioxo-2λ^6-thia-3,9,11,18,23-pentaazatetracyclo[17.3.1.111,14.05,10]tetracosa-1(23),5(10),6,8,19,21-hexaen-17-yl]pyridin-4-yl}piperidine-1-carboxylate]	++ (++ is 30-60%)	< 1000
CC(C)(C)c1ccc2c(n1)N1C[C@@H](CCC(c3cc(C4CCNCC4)ccn3)Nc3cccc(n3)S(=O)(=O)NC2=O)CC1(C)C (stereo partly drawn) [Compound 123]	+++ (+++ is >60%)	< 1000
CC(C)(C)c1ccc2c(n1)N1C[C@@H](CCC(c3cc(C4CCNCC4)ccn3)Nc3cccc(n3)S(=O)(=O)NC2=O)CC1(C)C (stereo partly drawn) [Compound 124, (14S)-8-tert-butyl-12,12-dimethyl-17-[4-(piperidin-4-yl)pyridin-2-yl]-2λ^6-thia-3,9,11,18,23-pentaazatetracyclo[17.3.1.111,14.05,10]tetracosa-1(23),5(10),6,8,19,21-hexaene-2,2,4-trione]	++ (++ is 30-60%)	< 1000
CC(C)(C)c1ccc2c(n1)N1C[C@@H](CCC(c3ccc(-c4cc[nH]n4)cn3)Nc3cccc(n3)S(=O)(=O)NC2=O)CC1(C)C (stereo partly drawn) [Compound 129]	+++ (+++ is >60%)	< 1000
CC(C)(C)c1ccc2c(n1)N1C[C@@H](CCC(c3ccc(-c4cc[nH]n4)cn3)Nc3cccc(n3)S(=O)(=O)NC2=O)CC1(C)C (stereo partly drawn) [Compound 130]	+++ (+++ is >60%)	< 1000
CC(C)(C)c1ccc2c(n1)N1C[C@@H](CC[C@@H](c3cccc(C4CCNCC4)n3)Nc3cccc(n3)S(=O)(=O)NC2=O)CC1(C)C [Compound 131]	+ (+ is <30%)	> 3000
CC(C)(C)c1ccc2c(n1)N1C[C@@H](CC[C@H](c3cccc(C4CCNCC4)n3)Nc3cccc(n3)S(=O)(=O)NC2=O)CC1(C)C [Compound 132, (14S,17R)-8-tert-Butyl-12,12-dimethyl-17-[6-(piperidin-4-yl)pyridin-2-yl]-2λ^6-thia-3,9,11,18,23-pentaazatetracyclo[17.3.1.111,14.05,10]tetracosa-1(23),5(10),6,8,19,21-hexaene-2,2,4-trione]	++ (++ is 30-60%)	< 1000
CC(C)(C)c1ccc2c(n1)N1C[C@@H](CC[C@@H](c3cccc(CCCN)n3)Nc3cccc(n3)S(=O)(=O)NC2=O)CC1(C)C [Compound 133]	+ (+ is <30%)	< 1000
CC(C)(C)c1ccc2c(n1)N1C[C@@H](CC[C@H](c3cccc(CCCN)n3)Nc3cccc(n3)S(=O)(=O)NC2=O)CC1(C)C [Compound 134, (14S,17R)-17-[6-(3-aminopropyl)pyridin-2-yl]-8-tert-butyl-12,12-dimethyl-2λ^6-thia-3,9,11,18,23-pentaazatetracyclo[17.3.1.111,14.05,10]tetracosa-1(23),5(10),6,8,19,21-hexaene-2,2,4-trione]	+++ (+++ is >60%)	< 1000
CC(C)(C)c1ccc2c(n1)N1C[C@@H](CCC(c3ccc(-c4cn[nH]c4)cn3)Nc3cccc(n3)S(=O)(=O)NC2=O)CC1(C)C (stereo partly drawn) [Compound 135]	++ (++ is 30-60%)	< 1000
CC(C)(C)c1ccc2c(n1)N1C[C@@H](CCC(c3ccc(-c4cn[nH]c4)cn3)Nc3cccc(n3)S(=O)(=O)NC2=O)CC1(C)C (stereo partly drawn) [Compound 136]	+++ (+++ is >60%)	< 1000
CC(C)(C)c1ccc2c(n1)N1C[C@@H](CCC(c3ccc(CCCN)cn3)Nc3cccc(n3)S(=O)(=O)NC2=O)CC1(C)C (stereo partly drawn) [Compound 137]	++ (++ is 30-60%)	< 1000
CC(C)(C)c1ccc2c(n1)N1C[C@@H](CCC(c3ccc(CCCN)cn3)Nc3cccc(n3)S(=O)(=O)NC2=O)CC1(C)C (stereo partly drawn) [Compound 138, (14S)-17-[5-(3-aminopropyl)pyridin-2-yl]-8-tert-butyl-12,12-dimethyl-2λ^6-thia-3,9,11,18,23-pentaazatetracyclo[17.3.1.111,14.05,10]tetracosa-1(23),5(10),6,8,19,21-hexaene-2,2,4-trione]	++ (++ is 30-60%)	< 1000
CC(C)(C)c1ccc2c(n1)N1C[C@@H](CC[C@@H](c3cccc(CCC#N)n3)Nc3cccc(n3)S(=O)(=O)NC2=O)CC1(C)C [Compound 139]	+ (+ is <30%)	> 3000
CC(C)(C)c1ccc2c(n1)N1C[C@@H](CC[C@H](c3cccc(CCC#N)n3)Nc3cccc(n3)S(=O)(=O)NC2=O)CC1(C)C [Compound 140]	++ (++ is 30-60%)	< 1000
CC(C)(C)c1ccc2c(n1)N1C[C@@H](CC[C@@H](c3cccc(C4=CCNCC4)n3)Nc3cccc(n3)S(=O)(=O)NC2=O)CC1(C)C [Compound 141]	++ (++ is 30-60%)	1000 to 3000
